Source: ChEMBL document CHEMBL5465560, “Selectivity Literature for EUbOPEN Chemogenomic Library” (2024)

What was measured:
[1] = target: Tyrosine-protein kinase JAK1 (Homo sapiens, UniProt P23458); experiment: Selectivity interaction (Kinase panel (KiNativ target engagement assay in Jurkat cells)) EUB0001635a JAK1; type: cell-based; details: Selectivity number of off-targets 0.0, Selectivity number of targets 233.0, Source Knowledge https://www.sciencedirect.com/science/article/pii/S2451945619300674?via%3Dihub, at 1 µM
[2] = test system: Mast/stem cell growth factor receptor Kit (Homo sapiens), P10721 [D816V]; experiment: (§1) Selectivity interaction (KinomeScan (DiscoverX)) EUB0000695a KIT; details: at 100 nM
Chain of Mast/stem cell growth factor receptor Kit (Homo sapiens), P10721 [D816V] (P10721 whole entry D816V): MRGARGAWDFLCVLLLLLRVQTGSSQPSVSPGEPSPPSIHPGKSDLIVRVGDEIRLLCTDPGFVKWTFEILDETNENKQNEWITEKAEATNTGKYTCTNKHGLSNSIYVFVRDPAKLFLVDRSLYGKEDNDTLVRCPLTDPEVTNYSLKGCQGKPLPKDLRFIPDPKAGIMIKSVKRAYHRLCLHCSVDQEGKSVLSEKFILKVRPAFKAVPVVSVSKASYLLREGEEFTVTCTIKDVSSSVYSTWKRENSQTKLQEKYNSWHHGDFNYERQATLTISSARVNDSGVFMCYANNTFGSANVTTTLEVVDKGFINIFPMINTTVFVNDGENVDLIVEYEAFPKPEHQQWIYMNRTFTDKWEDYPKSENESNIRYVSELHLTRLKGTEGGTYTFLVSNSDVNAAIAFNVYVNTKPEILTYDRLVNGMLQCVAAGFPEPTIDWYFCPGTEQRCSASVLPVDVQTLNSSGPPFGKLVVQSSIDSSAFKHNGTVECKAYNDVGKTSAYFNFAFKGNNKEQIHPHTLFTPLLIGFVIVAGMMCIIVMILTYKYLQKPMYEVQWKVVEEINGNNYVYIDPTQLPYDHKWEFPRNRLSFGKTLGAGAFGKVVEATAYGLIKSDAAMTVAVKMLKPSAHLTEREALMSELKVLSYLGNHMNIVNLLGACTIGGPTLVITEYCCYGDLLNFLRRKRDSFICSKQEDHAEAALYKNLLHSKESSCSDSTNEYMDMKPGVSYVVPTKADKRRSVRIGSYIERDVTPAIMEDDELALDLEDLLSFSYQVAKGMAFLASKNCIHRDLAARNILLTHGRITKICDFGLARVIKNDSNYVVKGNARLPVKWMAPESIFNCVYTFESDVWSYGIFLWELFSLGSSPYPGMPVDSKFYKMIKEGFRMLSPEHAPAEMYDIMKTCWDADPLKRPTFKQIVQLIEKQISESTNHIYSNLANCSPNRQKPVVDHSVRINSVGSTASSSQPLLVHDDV

[3] = test system: Mast/stem cell growth factor receptor Kit (Homo sapiens), P10721 [V559D]; experiment: as §1; details: at 100 nM
Chain of Mast/stem cell growth factor receptor Kit (Homo sapiens), P10721 [V559D] (P10721 whole entry V559D): as the sequence (P10721 whole entry D816V) above, with V559D, V816D counted along it

[4] = test system: Mast/stem cell growth factor receptor Kit (Homo sapiens), P10721 [A829P]; experiment: as §1; details: at 100 nM
[5] = test system: Mast/stem cell growth factor receptor Kit (Homo sapiens), P10721 [V559D,V654A]; experiment: as §1; details: at 100 nM
[6] = test system: Mast/stem cell growth factor receptor Kit (Homo sapiens), P10721 [V559D,T670I]; experiment: as §1; details: at 100 nM
[7] = test system: Mast/stem cell growth factor receptor Kit (Homo sapiens), P10721 [L576P]; experiment: as §1; details: at 100 nM
[8] = test system: Mast/stem cell growth factor receptor Kit (Homo sapiens), P10721 [D816H]; experiment: as §1; details: at 100 nM
[9] = target: Mast/stem cell growth factor receptor Kit (Homo sapiens, UniProt P10721); experiment: as §1; details: at 100 nM
Chain of Mast/stem cell growth factor receptor Kit (P10721 whole entry): as the sequence (P10721 whole entry D816V) above, with V816D counted along it

[10] = target: MAP/microtubule affinity-regulating kinase 3 (Homo sapiens) (UniProt P27448); experiment: Selectivity interaction (KinomeScan (DiscoverX)) EUB0001079a MARK3; details: at 1 µM
[11] = target: T1, Inhibitor of nuclear factor kappa-B kinase subunit beta (Homo sapiens) (UniProt O14920); experiment: Selectivity interaction (Kinase panel (Z-LYTE Assay)) EUB0001632a IKBKB; details: at 10 µM
T1 sequence (whole entry): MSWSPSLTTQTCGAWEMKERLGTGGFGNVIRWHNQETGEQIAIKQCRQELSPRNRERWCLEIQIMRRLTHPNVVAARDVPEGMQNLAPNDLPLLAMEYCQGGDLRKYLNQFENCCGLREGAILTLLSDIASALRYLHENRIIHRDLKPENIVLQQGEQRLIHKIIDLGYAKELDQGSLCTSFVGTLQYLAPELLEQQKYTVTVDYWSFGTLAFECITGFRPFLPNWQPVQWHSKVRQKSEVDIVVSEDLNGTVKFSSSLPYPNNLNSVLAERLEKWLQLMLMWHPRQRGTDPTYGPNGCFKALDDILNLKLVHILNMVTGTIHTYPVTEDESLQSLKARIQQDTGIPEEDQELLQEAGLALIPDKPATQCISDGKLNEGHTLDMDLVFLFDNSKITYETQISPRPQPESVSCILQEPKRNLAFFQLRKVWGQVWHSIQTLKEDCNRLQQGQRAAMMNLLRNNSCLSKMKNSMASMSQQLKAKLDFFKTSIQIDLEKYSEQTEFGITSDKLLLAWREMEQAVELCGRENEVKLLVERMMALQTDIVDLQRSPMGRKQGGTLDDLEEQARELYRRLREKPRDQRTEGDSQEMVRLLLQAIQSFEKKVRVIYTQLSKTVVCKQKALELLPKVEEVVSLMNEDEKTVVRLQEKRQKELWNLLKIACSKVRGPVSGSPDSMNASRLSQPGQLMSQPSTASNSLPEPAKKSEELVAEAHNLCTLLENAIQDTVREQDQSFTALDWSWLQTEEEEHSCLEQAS

[12] = target: Insulin-like growth factor 1 receptor (Homo sapiens, UniProt P08069); details: at 10 µM
Chain of Insulin-like growth factor 1 receptor (P08069 31-736 limits assumed): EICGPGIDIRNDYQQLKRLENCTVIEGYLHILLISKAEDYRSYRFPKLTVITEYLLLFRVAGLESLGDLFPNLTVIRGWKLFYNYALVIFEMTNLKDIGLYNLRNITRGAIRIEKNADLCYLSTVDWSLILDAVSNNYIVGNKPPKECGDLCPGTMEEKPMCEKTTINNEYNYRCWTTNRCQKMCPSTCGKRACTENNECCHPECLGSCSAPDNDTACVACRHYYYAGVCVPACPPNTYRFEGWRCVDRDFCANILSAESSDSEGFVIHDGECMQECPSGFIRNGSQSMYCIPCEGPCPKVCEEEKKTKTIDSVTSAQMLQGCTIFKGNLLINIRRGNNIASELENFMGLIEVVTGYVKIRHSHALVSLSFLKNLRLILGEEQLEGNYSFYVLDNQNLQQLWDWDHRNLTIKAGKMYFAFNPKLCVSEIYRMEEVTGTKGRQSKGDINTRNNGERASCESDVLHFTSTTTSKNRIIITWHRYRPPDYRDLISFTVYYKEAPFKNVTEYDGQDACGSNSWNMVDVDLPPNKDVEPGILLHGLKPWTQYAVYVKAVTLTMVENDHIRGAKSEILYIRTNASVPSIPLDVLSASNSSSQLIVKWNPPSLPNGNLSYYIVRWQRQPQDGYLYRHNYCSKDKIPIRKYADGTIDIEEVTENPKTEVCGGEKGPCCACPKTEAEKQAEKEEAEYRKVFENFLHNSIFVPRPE
Chain of Insulin-like growth factor 1 receptor (P08069 741-1367 limits assumed): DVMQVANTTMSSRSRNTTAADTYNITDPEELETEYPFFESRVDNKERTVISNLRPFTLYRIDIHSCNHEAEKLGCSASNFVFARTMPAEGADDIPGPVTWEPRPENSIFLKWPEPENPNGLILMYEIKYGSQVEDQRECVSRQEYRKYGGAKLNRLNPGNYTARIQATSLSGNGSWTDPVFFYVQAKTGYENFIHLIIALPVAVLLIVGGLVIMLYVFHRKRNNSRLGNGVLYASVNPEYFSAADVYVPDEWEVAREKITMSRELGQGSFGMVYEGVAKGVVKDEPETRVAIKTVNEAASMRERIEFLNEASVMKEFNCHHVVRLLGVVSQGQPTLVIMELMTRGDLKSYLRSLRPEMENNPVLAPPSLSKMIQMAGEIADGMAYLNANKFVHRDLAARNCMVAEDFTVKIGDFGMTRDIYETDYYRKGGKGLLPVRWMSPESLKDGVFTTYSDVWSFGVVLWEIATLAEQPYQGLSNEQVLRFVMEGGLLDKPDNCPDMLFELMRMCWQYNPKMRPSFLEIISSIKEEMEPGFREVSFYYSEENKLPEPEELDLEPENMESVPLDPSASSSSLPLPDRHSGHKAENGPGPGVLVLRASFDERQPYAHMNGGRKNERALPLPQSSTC

[13] = target: Ribosomal protein S6 kinase beta-1 (Homo sapiens, UniProt P23443); experiment: Selectivity interaction (Millipore kinase profiler) EUB0000124b RPS6KB1; details: at 10 µM
Chain of Ribosomal protein S6 kinase beta-1 (P23443 whole entry, looked up): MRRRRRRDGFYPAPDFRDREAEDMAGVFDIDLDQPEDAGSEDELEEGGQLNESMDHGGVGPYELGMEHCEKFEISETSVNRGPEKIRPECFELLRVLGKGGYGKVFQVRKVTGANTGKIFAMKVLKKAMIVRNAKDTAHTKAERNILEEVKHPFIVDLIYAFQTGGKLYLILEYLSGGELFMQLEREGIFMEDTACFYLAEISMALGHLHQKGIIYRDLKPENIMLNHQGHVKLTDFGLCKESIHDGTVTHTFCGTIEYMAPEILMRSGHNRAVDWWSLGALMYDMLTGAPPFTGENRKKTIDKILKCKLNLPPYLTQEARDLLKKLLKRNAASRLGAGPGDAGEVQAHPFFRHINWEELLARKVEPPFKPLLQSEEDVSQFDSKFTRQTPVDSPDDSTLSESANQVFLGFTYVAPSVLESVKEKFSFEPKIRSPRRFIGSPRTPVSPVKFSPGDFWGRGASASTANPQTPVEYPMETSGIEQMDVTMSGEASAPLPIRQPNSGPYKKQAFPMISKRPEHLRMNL

[14] = target: T2, Serine/threonine-protein kinase RIO1 (Homo sapiens) (UniProt Q9BRS2); experiment: Selectivity interaction (Kinase panel (DSF assay)) EUB0001558a RIOK1
T2 sequence (whole entry): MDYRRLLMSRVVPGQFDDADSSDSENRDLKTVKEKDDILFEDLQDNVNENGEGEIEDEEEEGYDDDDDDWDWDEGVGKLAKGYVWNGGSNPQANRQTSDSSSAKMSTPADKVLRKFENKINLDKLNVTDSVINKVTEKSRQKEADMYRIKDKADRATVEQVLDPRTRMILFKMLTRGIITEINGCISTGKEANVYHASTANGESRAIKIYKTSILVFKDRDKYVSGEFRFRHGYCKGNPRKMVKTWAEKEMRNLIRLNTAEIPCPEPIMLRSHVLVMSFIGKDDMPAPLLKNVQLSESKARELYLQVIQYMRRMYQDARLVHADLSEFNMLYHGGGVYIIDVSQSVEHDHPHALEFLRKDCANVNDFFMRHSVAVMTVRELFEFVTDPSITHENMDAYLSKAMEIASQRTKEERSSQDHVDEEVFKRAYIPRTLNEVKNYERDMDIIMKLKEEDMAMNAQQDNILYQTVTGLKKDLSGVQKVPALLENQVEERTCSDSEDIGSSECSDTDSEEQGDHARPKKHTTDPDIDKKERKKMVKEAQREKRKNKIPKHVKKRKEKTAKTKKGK

[15] = target: Serine/threonine-protein kinase PRP4 homolog (Homo sapiens) (UniProt Q13523); experiment: Selectivity interaction (ActivX KiNativ screen (kinase selectivity in THP-1 cell lysates)) EUB0000639a PRPF4; type: subcellular; details: lysate, at 5 µM

## C=CC(=O)Nc1ccc(C(=O)Nc2[nH]nc3c2CN(C(=O)N[C@H](CN(C)C)c2ccccc2)C3(C)C)cc1
[1]
  % of engagement: 11.1%

## Cc1cc(F)c(C(=O)Nc2cccc(-c3nncn3C(C)C)n2)cc1-n1cnc(C2CC2)c1
[2]
  % of control: 84%
[3]
  % of control: 92%
[4]
  % of control: 82%
[5]
  % of control: 100%
[6]
  % of control: 100%
[7]
  % of control: 94%
[8]
  % of control: 79%
[9]
  % of control: 89%

## Nc1cnc(N2CCc3cc(S(=O)(=O)Nc4c(F)cc(Cl)cc4F)cc(N4CCCC4=O)c32)nc1 [TP-020n]
[10]
  % of control: 100%

## Cn1cc(-n2cnc3c(NCc4nc5cc(Cl)c(Cl)cc5[nH]4)nc(N4CCOCC4)nc32)cn1
[11]
  % of control: -3.93%

## Cc1cc([C@@H](C)Nc2ccccc2C(=O)O)c2nc(N3CCOCC3)cc(=O)n2c1 [AZD-6482]
[12]
  % of control: 100%

## CC(=O)Nc1cccc(-n2c(=O)n(C3CC3)c(=O)c3c(Nc4ccc(I)cc4F)n(C)c(=O)c(C)c32)c1
[13]
  % of control: 104%

## CC(C)(O)[C@H](F)CN1Cc2cc(NC(=O)c3cnn4cccnc34)c(N3CCOCC3)cc2C1=O
[14]
  dTM: -0.3 K

## CC[C@@H]1[C@H](F)C(=O)N[C@@H]1COc1nccc2cc(C(N)=O)c(OC)cc12 [ZIMLOVISERTIB]
[15]
  % of inhibition: 85.9%
